“And” between values parts separate entries of the source, which are not always exact repeats. Identical values can stand only once. Toxic doses and inconclusive results are not listed. The calls were made as follows: active = survival T/C of 150% or more; inactive = T/C below 125% in these data.
Tested on: CD2F1 mice, L1210 leukemia ip, survival T/C
Assay: NCI In Vivo Anticancer Drug Screen. Data for tumor model L1210 Leukemia (intraperitoneal) in CD2F1 (CDF1) mice
Conditions: higher = longer survival
In short: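 Vehicle-treated tumor-bearing mice served as controls (C) for compound-treated mice (T). Reported figure is T divided by C.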

[1] = endpoint: mean survival time, dose: 100.0 mg/kg/injection, schedule: Q04DX003 (ip), vehicle: other
[2] = endpoint: mean survival time, dose: 25.0 mg/kg/injection, schedule: Q04DX002 (ip), vehicle: saline with Tween-80
[3] = endpoint: mean survival time, dose: 75.0 mg/kg/injection, schedule: Q04DX003 (ip), vehicle: saline
[4] = endpoint: mean survival time, dose: 150.0 mg/kg/injection, schedule: Q04DX003 (ip), vehicle: saline
[5] = endpoint: mean survival time, dose: 100.0 mg/kg/injection, schedule: Q01DX009 (ip), vehicle: saline with Tween-80
[6] = endpoint: mean survival time, dose: 100.0 mg/kg/injection, schedule: Q04DX003 (ip), vehicle: saline with Tween-80
[7] = endpoint: mean survival time, dose: 200.0 mg/kg/injection, schedule: Q04DX003 (ip), vehicle: saline with Tween-80
[8] = endpoint: mean survival time, dose: 400.0 mg/kg/injection, schedule: Q01DX009 (ip), vehicle: saline with Tween-80
[9] = endpoint: mean survival time, dose: 400.0 mg/kg/injection, schedule: Q04DX003 (ip), vehicle: saline with Tween-80

Measured: T/C

CCCCOC(=S)S.[Pt]
inactive: endpoint: mean survival time, dose: 18.75 mg/kg/injection, schedule: Q04DX003 (ip), vehicle: saline with Tween-80 101 % of control | endpoint: mean survival time, dose: 37.5 mg/kg/injection, schedule: Q04DX003 (ip), vehicle: saline with Tween-80 93 % of control | endpoint: mean survival time, dose: 75.0 mg/kg/injection, schedule: Q04DX003 (ip), vehicle: saline with Tween-80 101 % of control | endpoint: mean survival time, dose: 150.0 mg/kg/injection, schedule: Q04DX003 (ip), vehicle: saline with Tween-80 101 % of control | endpoint: mean survival time, dose: 300.0 mg/kg/injection, schedule: Q04DX003 (ip), vehicle: saline with Tween-80 97 % of control

O=C(O)c1cccs1
inactive: [1] 100 % of control | endpoint: mean survival time, dose: 200.0 mg/kg/injection, schedule: Q04DX003 (ip), vehicle: other 102 % of control

CC(N)C(=O)c1ccccc1 (stereo not drawn)
inactive: endpoint: mean survival time, dose: 100.0 mg/kg/injection, schedule: Q04DX003 (ip), vehicle: saline 105 % of control | endpoint: mean survival time, dose: 200.0 mg/kg/injection, schedule: Q04DX003 (ip), vehicle: saline 94 % of control

CCOC(=O)c1ccccc1C(C)CC (stereo not drawn)
inactive: endpoint: mean survival time, dose: 75.0 mg/kg/injection, schedule: Q01DX001 (ip), vehicle: other 98 % of control | endpoint: mean survival time, dose: 150.0 mg/kg/injection, schedule: Q01DX001 (ip), vehicle: other 97 % of control | endpoint: mean survival time, dose: 300.0 mg/kg/injection, schedule: Q01DX001 (ip), vehicle: other 95 % of control

O=C(C=C(C(F)(F)F)C(F)(F)F)c1ccc(Br)cc1
inactive: endpoint: mean survival time, dose: 12.5 mg/kg/injection, schedule: Q01DX009 (ip), vehicle: other 107 % of control | endpoint: mean survival time, dose: 25.0 mg/kg/injection, schedule: Q01DX009 (ip), vehicle: other 110 % of control | [1] 105 % of control

Cc1c(C(=O)O)nc(/C=C/C(Cl)(Cl)Cl)[nH]c1=O
inactive: endpoint: mean survival time, dose: 25.0 mg/kg/injection, schedule: Q01DX005 (ip), vehicle: other 104 % of control | endpoint: mean survival time, dose: 50.0 mg/kg/injection, schedule: Q01DX005 (ip), vehicle: other 103 % of control | endpoint: mean survival time, dose: 100.0 mg/kg/injection, schedule: Q01DX005 (ip), vehicle: other 97 % of control | endpoint: mean survival time, dose: 200.0 mg/kg/injection, schedule: Q01DX005 (ip), vehicle: other 106 % of control | endpoint: mean survival time, dose: 400.0 mg/kg/injection, schedule: Q01DX005 (ip), vehicle: other 95 % of control

CN=C([Se])NC
inactive: endpoint: mean survival time, dose: 3.13 mg/kg/injection, schedule: Q01DX005 (ip), vehicle: saline with Tween-80 108 % of control | endpoint: mean survival time, dose: 6.25 mg/kg/injection, schedule: Q01DX005 (ip), vehicle: saline with Tween-80 103 % of control | endpoint: mean survival time, dose: 12.5 mg/kg/injection, schedule: Q01DX005 (ip), vehicle: saline with Tween-80 116 % of control | endpoint: mean survival time, dose: 12.5 mg/kg/injection, schedule: Q04DX002 (ip), vehicle: saline with Tween-80 102 % of control | [2] 104 % of control

NOc1ccc([N+](=O)[O-])cc1[N+](=O)[O-]
inactive: endpoint: mean survival time, dose: 25.0 mg/kg/injection, schedule: Q01DX009 (ip), vehicle: saline with Tween-80 89 % of control

NCC1OC(OC2C(N)CC(N)C(O)C2OC2OC(CO)C(O)C2O)C(N)C(O)C1O (stereo not drawn)
inactive: [3] 96 % of control | [4] 102 % of control | endpoint: mean survival time, dose: 300.0 mg/kg/injection, schedule: Q04DX003 (ip), vehicle: saline 100 % of control

CC[C@@]1(O)C[C@H](OC2CC(N(C)C)C(OC3CC(O)C(O[C@@H]4O[C@@H](C)C(=O)C=C4N)C(C)O3)C(C)O2)c2c(cc3c(c2O)C(=O)c2c(O)ccc(O)c2C3=O)[C@H]1C(=O)OC (stereo partly drawn)
inactive: endpoint: mean survival time, dose: 0.02 mg/kg/injection, schedule: Q01DX009 (ip), vehicle: suspension in saline 102 % of control | endpoint: mean survival time, dose: 0.05 mg/kg/injection, schedule: Q01DX009 (ip), vehicle: suspension in saline 96 % of control | endpoint: mean survival time, dose: 0.1 mg/kg/injection, schedule: Q01DX009 (ip), vehicle: suspension in saline 103 % of control | endpoint: mean survival time, dose: 0.2 mg/kg/injection, schedule: Q01DX009 (ip), vehicle: suspension in saline 115 % of control | endpoint: mean survival time, dose: 0.4 mg/kg/injection, schedule: Q01DX009 (ip), vehicle: suspension in saline 108 % of control | endpoint: mean survival time, dose: 0.8 mg/kg/injection, schedule: Q01DX009 (ip), vehicle: suspension in saline 123 % of control | endpoint: mean survival time, dose: 1.6 mg/kg/injection, schedule: Q01DX009 (ip), vehicle: suspension in saline 111 % of control

CC(=O)[O][Hg][c]1c(C)c(C)[c]([Hg][O]C(C)=O)c(C)c1C
inactive: [2] 87 % of control | endpoint: mean survival time, dose: 50.0 mg/kg/injection, schedule: Q04DX002 (ip), vehicle: saline with Tween-80 87 % of control

CSc1nc(SC)c2cnn(C3OC(CO)C(O)C3O)c2n1 (stereo not drawn)
inactive: endpoint: median survival time, dose: 3.12 mg/kg/injection, schedule: Q01DX005 (ip), vehicle: saline with Tween-80 95 % of control | endpoint: median survival time, dose: 6.25 mg/kg/injection, schedule: Q01DX005 (ip), vehicle: saline with Tween-80 100 % of control | endpoint: median survival time, dose: 12.5 mg/kg/injection, schedule: Q01DX005 (ip), vehicle: saline with Tween-80 102 % of control and 103 % of control | endpoint: median survival time, dose: 25.0 mg/kg/injection, schedule: Q01DX005 (ip), vehicle: saline with Tween-80 102 % of control and 101 % of control and 97 % of control | endpoint: median survival time, dose: 50.0 mg/kg/injection, schedule: Q01DX005 (ip), vehicle: saline with Tween-80 102 % of control and 101 % of control and 97 % of control | endpoint: median survival time, dose: 100.0 mg/kg/injection, schedule: Q01DX005 (ip), vehicle: saline with Tween-80 102 % of control and 95 % of control | endpoint: median survival time, dose: 200.0 mg/kg/injection, schedule: Q01DX005 (ip), vehicle: saline with Tween-80 93 % of control and 95 % of control

O=C(NC(=O)c1ccccc1)Nc1ccccc1
inactive: [5] 96 % of control | [6] 92 % of control | [7] 90 % of control | [8] 94 % of control | [9] 90 % of control

CC(=O)CC1C(CC(=O)O)C1(C)C (stereo not drawn)
inactive: endpoint: mean survival time, dose: 100.0 mg/kg/injection, schedule: Q01DX001 (ip), vehicle: alcohol 100 % of control | endpoint: mean survival time, dose: 200.0 mg/kg/injection, schedule: Q01DX001 (ip), vehicle: alcohol 102 % of control | endpoint: mean survival time, dose: 400.0 mg/kg/injection, schedule: Q01DX001 (ip), vehicle: alcohol 102 % of control

Nc1cc(C(F)(F)F)ccc1/C(=C/c1ccc(Cl)cc1)C(=O)O
inactive: [3] 103 % of control | [4] 102 % of control

CCCCCCCC/C=C\CCCCCCCC(=O)NCCN(CC)CC
inactive: endpoint: mean survival time, dose: 75.0 mg/kg/injection, schedule: Q01DX001 (ip), vehicle: saline 101 % of control | endpoint: mean survival time, dose: 150.0 mg/kg/injection, schedule: Q01DX001 (ip), vehicle: saline 101 % of control

CC(=O)OCC1OC(n2ncnc2CBr)C(OC(C)=O)C(OC(C)=O)C1OC(C)=O (stereo not drawn)
inactive: endpoint: median survival time, dose: 12.5 mg/kg/injection, schedule: Q01DX005 (ip), vehicle: distilled water + Tween-80 108 % of control | endpoint: median survival time, dose: 25.0 mg/kg/injection, schedule: Q01DX005 (ip), vehicle: distilled water + Tween-80 97 % of control | endpoint: median survival time, dose: 50.0 mg/kg/injection, schedule: Q01DX005 (ip), vehicle: distilled water + Tween-80 104 % of control

CC(CC(=O)Nc1ccccc1)C(=O)O (stereo not drawn)
inactive: [6] 103 % of control | [7] 101 % of control | [9] 106 % of control

CC1/C(=N/O)C(=O)c2ccccc21 (stereo not drawn)
inactive: endpoint: mean survival time, dose: 50.0 mg/kg/injection, schedule: Q01DX009 (ip), vehicle: saline with Tween-80 102 % of control | endpoint: mean survival time, dose: 100.0 mg/kg/injection, schedule: Q01DX001 (ip), vehicle: saline with Tween-80 91 % of control | [5] 86 % of control | endpoint: mean survival time, dose: 200.0 mg/kg/injection, schedule: Q01DX001 (ip), vehicle: saline with Tween-80 97 % of control

COC(=O)CNc1ccn(C2OC(CO)C(O)C2O)c(=O)n1 (stereo not drawn)
inactive: endpoint: mean survival time, dose: 12.5 mg/kg/injection, schedule: Q01DX005 (ip), vehicle: distilled water + Tween-80 96 % of control | endpoint: mean survival time, dose: 25.0 mg/kg/injection, schedule: Q01DX005 (ip), vehicle: distilled water + Tween-80 100 % of control | endpoint: mean survival time, dose: 50.0 mg/kg/injection, schedule: Q01DX005 (ip), vehicle: distilled water + Tween-80 100 % of control | endpoint: mean survival time, dose: 100.0 mg/kg/injection, schedule: Q01DX005 (ip), vehicle: distilled water + Tween-80 97 % of control | endpoint: mean survival time, dose: 200.0 mg/kg/injection, schedule: Q01DX005 (ip), vehicle: distilled water + Tween-80 103 % of control

OC(CCc1ccccc1)(C(F)(F)Cl)C(F)(F)Cl
inactive: [6] 98 % of control | [7] 89 % of control | [9] 92 % of control

[N-]=[N+]=CC(=O)CCC(NC(=O)OCc1ccccc1)C(=O)OCc1ccccc1 (stereo not drawn)
inactive: endpoint: median survival time, dose: 200.0 mg/kg/injection, schedule: Q01DX009 (ip), vehicle: Klucel (hydroxypropylcellulose) (HPC) 123 % of control and 96 % of control and 111 % of control | endpoint: median survival time, dose: 400.0 mg/kg/injection, schedule: Q01DX009 (ip), vehicle: Klucel (hydroxypropylcellulose) (HPC) 114 % of control

CC1(C)CC(=O)C2OC2(C)C1 (stereo not drawn)
inactive: [5] 100 % of control | [6] 95 % of control | endpoint: mean survival time, dose: 200.0 mg/kg/injection, schedule: Q01DX009 (ip), vehicle: saline with Tween-80 97 % of control | [7] 103 % of control | [8] 96 % of control | [9] 97 % of control
